US11591342B2, “Heterocyclic compound, application thereof and pharmaceutical composition comprising same” (SUZHOU SINOVENT PHARMACEUTICALS CO., LTD., priority 2018, dated 2023)

Key:
[1] = biological target: CYP3A4 (Homo sapiens (Human), UniProt P08684); experiment: Time-dependent inhibition of CYP3A4 (TDI assay, human liver microsomes); type: in vitro ADME; conditions: for CYP3A4 TDI % @ 10 μM: human liver microsomes, Midazolam substrate, 30 min with NADPH vs 0 min; for time-dependent inhibition on CYP3A4 (conclusion): conclusion drawn from Table 3, 10 μM
Chain of CYP3A4 (P08684 whole entry): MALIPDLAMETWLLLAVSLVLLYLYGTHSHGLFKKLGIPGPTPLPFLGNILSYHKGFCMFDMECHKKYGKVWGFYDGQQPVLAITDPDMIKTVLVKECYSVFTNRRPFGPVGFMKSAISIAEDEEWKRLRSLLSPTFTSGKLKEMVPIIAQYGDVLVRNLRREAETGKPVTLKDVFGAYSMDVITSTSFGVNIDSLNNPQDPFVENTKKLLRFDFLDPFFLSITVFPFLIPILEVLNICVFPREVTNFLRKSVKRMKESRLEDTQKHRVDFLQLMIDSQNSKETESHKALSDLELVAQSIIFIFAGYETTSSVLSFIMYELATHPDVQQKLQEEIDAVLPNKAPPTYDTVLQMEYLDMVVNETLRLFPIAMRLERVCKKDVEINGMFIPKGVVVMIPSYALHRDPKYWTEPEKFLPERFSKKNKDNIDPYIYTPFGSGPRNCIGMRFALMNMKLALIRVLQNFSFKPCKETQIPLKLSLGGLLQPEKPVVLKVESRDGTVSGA
Procedure: Effect Example 3. Time-Dependent Inhibition of CYP3A4
1. Preheating potassium phosphate buffer (K-buffer), pH 7.4: 100 mM potassium phosphate buffer (K-buffer) was prepared by mixing 9.5 mL of solution A with 40.5 mL of solution B, diluting to 500 mL with ultrapure water, and then adjusting to pH 7.4 with KOH or H3PO4, wherein the solution A (1M potassium dihydrogenphosphate) was prepared by dissolving 136.5 g of potassium dihydrogenphosphate in […] of ultrapure water.
2. Preparation of human liver microsome suspension (1.3 mg/mL, 1.3×, stock: 20 mg/mL): 100 μL of human liver microsome suspension (20 mg/mL) was added into […] of K-buffer.
3. Preparation of NADPH solution (4.167 mg/mL, 5 mM): 8.3 mg of NADPH was added into 2 mL of buffer.
4. Preparation of substrate solution (1.5× final): 1.5 μL of 10 mM Midazolam was added to 998.5 μL of K-buffer to yield the substrate mixture.
5. Preparation of 100× test compound, reference and blank control solutions: 3 μL of 10 mM stock solution of test compound was added to 27 μL of ACN; 3 μL of positive control stock solution was added to 27 μL of ACN; and 3 μL of DMSO was added to 27 μL of ACN to serve as blank control.
6. Primary preheating system: An NADPH-free system for 0 min incubation: 78 μL of 1.3× human liver microsome solution (step 2) was mixed with 1 μL of the 100× stock solutions of positive control, test compound, or blank control (step 5); A system containing NADPH for 30 min incubation: 78 μL of 1.3× human liver microsome solution (step 2) was mixed with 1 μL of the 100× stock solutions of positive control, test compound, or blank control (step 5).
7. Secondary preheating system: 150 μL of the substrate solution prepared in step 4 was added into a deep well plate together with the NADPH solution from step 3
8. The samples were preheated for 10 min in a 37° C. water bath.
9. Reaction procedure: (1) reaction for 0 min: 21 μL of K-buffer was added to the primary preheating system and mixed well without incubation; 20 μL of the mixture was immediately transferred into the plate of the secondary preheating system; after mixing, the secondary system was incubated in a 37° C. water bath for 15 min, and 60 μL of the reaction mixture was added into 120 μL of acetonitrile containing internal standard to terminate the reaction; and (2) reaction for 30 min: 21 μL of NADPH was added into the primary preheating system for a 30-min incubation after mixing; 20 μL of the mixture was added into the secondary preheating system prior to mixing; the mixture was incubated in a 37° C. water bath for 15 min, and 60 μL of the reaction mixture was added into 120 μL of acetonitrile containing internal standard to terminate the reaction.
10. After termination, the samples were shaken on a shaker at 600 rpm for 10 min and centrifuged at 5594 g for 15 min prior to LC-MS/MS analysis.

[2] = biological target: Autotaxin (ATX) (Homo sapiens (Human), UniProt Q13822); experiment: ATX bioactivity assay (Amplex Red / choline oxidase / HRP fluorescence, LPC 16:0 substrate); type: biochemical; conditions: 30 min room temperature
Procedure: Effect Example 1 Bioactivity Assay
Preparation and Treatment
Stock Solution Preparation
A 10 mM DMSO stock solution was formulated for each compound. A 30 mM DMSO stock solution was formulated for positive control HA130.
The DMSO stock solutions were stored at room temperature in a desiccator for a short period of time or at −20° C. for a long period of time.
All compounds were serially 3-fold diluted in DMSO from 10 μM to the 10th concentration.
A 1000× positive control (10 mM, HA130) and a 1000× negative control (100% DMSO) were prepared.
The plates were shaken for 5 min.
Preparation of 1× Reaction Buffer:
5× reaction buffer and cold water were mixed well in a volume ratio of 1:4.
Preparation of 20 U/mL Choline Oxidase Stock Solution:
1 tube of choline oxide in a kit was dissolved in 1× reaction buffer. The aliquots were frozen at −20° C.
Preparation of 200 U/mL Horseradish Peroxidase (HRP) Stock Solution:
1 tube of HRP in a kit was dissolved in 1 mL of 1× reaction buffer. The aliquots were frozen at −20° C.
Preparation of 20 mM Amplex® Red Reagent (for Detection) Stock Solution
Amplex Red reagent and DMSO were equilibrated at room temperature. 1 tube of Amplex Red reagent in a kit was dissolved in 200 μL of DMSO.
a) 2×ATX ([…]), 2×HRP ([…]), 2× choline oxidase (0.2 U/mL) were added to 1× reaction buffer.
b) 20 μL of the reaction mixture was added to the plate (PE, 6007270) (refer to step a).
c) 40 nL of diluent was added to the plate using Echo (refer to “Preparation”).
d) 2×LPC (16:0) (60 mM) and 2× Amplex® Red ([…]) were prepared using 1× reaction buffer.
e) 20 μL of the mixture was added to the plate (refer to step d).
f) The plate was shaken for 30 s and allowed to stand at room temperature for 30 min.
g) The plate was examined using Envision, and the procedure was as follows: Excitation at 530 nm; and Emission at 590 nm.
Formula for Calculating % Inhibition (Percent Inhibition Rate) as Follows:
FLU: Fluorescence (fluorescence reading)
FLUpositive: Average fluorescence value in positive control wells (10 μM HA130) in the plate.
FLUvehicle: Average fluorescence value in negative control wells (0.1% DMSO) in the plate.
Calculation of IC50 and Dose-Response Curve:
IC50 of the compounds was calculated via a non-linear regression line (dose-variable slope) fitted using % inhibition and log of compound concentration. The software used was Graphpad 5.0. Y=Bottom+(Top−Bottom)/(1+10^((Log IC50−X)×Hill Slope))
X: log of inhibitor concentration

[3] = test system: LPA18:2 in mouse plasma; experiment: Inhibition of LPA in mouse plasma (plasma LPA18:2 assay, LC-MS/MS); type: biochemical, CD1 mice; conditions: fresh CD1 mouse plasma, LPA18:2, 37° C. for 120 min
Procedure: Effect Example 2. Inhibition of LPA in Mouse Plasma by Compounds
20 mM stock solutions of the compounds were prepared with DMSO and then diluted to 1 mM, which was subjected to a serial 3-fold dilution to yield 10 working solutions.
Collection of Fresh Mouse Plasma:
CD1 mice were euthanized by CO2 inhalation. Approximately 1 mL of whole blood was taken by cardiac puncture, with EDTA-K2 for anticoagulation. The blood was centrifuged at 3220 g for 10 min at 4° C. for plasma collection.
Reactions were performed in a 96-well plate, and the samples were tested in duplicate. 1 μL of each working solution was added to 100 μL of plasma, with the final concentrations of […]. 1 μL of DMSO was added to plasma to serve as blank. The samples were incubated in a water bath at 37° C. for 120 min, and 600 μL of 10 μM tolbutamide in methanol was added to terminate the reaction. Tolbutamide also served as an internal standard. After 5 min of vortex mixing, the samples were centrifuged at 3220 g for 45 min at 4° C. to precipitate the protein. 100 μL of the supernatant was transferred to a new plate, diluted with water based on LC-MS response and peak shapes, mixed well and analyzed by LC-MS/MS.
LPA18:2 was quantified using peak area ratio (LPA18:2/internal standard), requiring no standard curve. For test compounds of different concentrations, LPA data was represented by a percentage decrease of LPA: 100-[((LPA peak area ratio of compound)/(LPA peak area ratio of control))×100]. IC50 was calculated using Graphpad Prism 6.0 software.

Row | SMILES | CYP3A4 TDI % @ 10 μM [1] [%] | time-dependent inhibition on CYP3A4 (conclusion) [1] | IC50 [2] [nM] | IC50 [3] [nM]
1 | CCc1oc2c(F)cc(N3CCN(CC(=O)N4CC(O)C4)CC3)cc2c1N(C)c1nc(-c2ccc(F)cc2)c(C#N)s1 [Compound S-0024, 2-((2-ethyl-7-fluoro-5-(4-(2-(3-hydroxyazetidin-1-yl)-2-oxoethyl)piperazin-1-yl)benzofuran-3-yl)(methyl)amino)-4-(4-fluorophenyl)thiazole-5-carbonitrile] | 4.8 | no time-dependent inhibition on CYP3A4 | 188 | –
2 | CCn1nc2c(F)cc(N3CCN(CC(=O)N4CC(O)C4)CC3)cc2c1N(C)c1nc(-c2ccc(F)c(F)c2)c(C#N)s1 [Compound S-0027, 4-(3,4-difluorophenyl)-2-((2-ethyl-7-fluoro-5-(4-(2-(3-hydroxyazetidin-1-yl)-2-oxoethyl)piperazin-1-yl)-2H-indazol-3-yl)(methyl)amino) thiazole-5-carbonitrile] | 42.12 | weak time-dependent inhibition on CYP3A4 | 165 | –
3 | CCc1oc2ncc(N3CCN(CC(=O)N4CC(O)C4)CC3)cc2c1N(C)c1nc(-c2ccc(F)cc2)c(C#N)s1 [Compound S-0045, 2-((2-ethyl-5-(4-(2-(3-hydroxyazetidin-1-yl)-2-oxoethyl)piperazin-1-yl)furo[2,3-b]pyridin-3-yl)(methyl)amino)-4-(4-fluorophenyl)thiazole-5-carbonitrile] | 2.68 | no time-dependent inhibition on CYP3A4 | 261 | –
4 | CCc1oc2cnc(N3CCN(CC(=O)N4CC(O)C4)CC3)cc2c1N(C)c1nc(-c2ccc(F)cc2)c(C#N)s1 [Compound S-0046, 2-((2-ethyl-5-(4-(2-(3-hydroxyazetidin-1-yl)-2-oxoethyl)piperazin-1-yl)furo[2,3-c]pyridin-3-yl)(methyl)amino)-4-(4-fluorophenyl)thiazole-5-carbonitrile] | 10.38 | no time-dependent inhibition on CYP3A4 | > 10000 | –
5 | CCc1nn2ccc(N3CCN(CC(=O)N4CC(O)C4)CC3)nc2c1N(C)c1nc(-c2ccc(F)c(F)c2)c(C#N)s1 [Compound S-0121, 4-(3,4-difluorophenyl)-2-((2-ethyl-5-(4-(2-(3-hydroxyazetidin-1-yl)-2-oxoethyl)piperazin-1-yl)pyrazolo[1,5-a]pyrimidin-3-yl)(methyl)amino)thiazole-5-carbonitrile] | – | – | 61 | –
6 | CCN(c1nc(-c2ccc(F)c(F)c2)c(C#N)s1)c1c2cc(N3CCN(CC(=O)N4CC(O)C4)CC3)cc(F)c2nn1CC [Compound S-0123, 4-(3,4-difluorophenyl)-2-(ethyl(2-ethyl-7-fluoro-5-(4-(2-(3-hydroxyazetidin-1-yl)-2-oxoethyl)piperazin-1-yl)-2H-indazol-3-yl)amino)thiazole-5-carbonitrile] | – | – | 32 | –
7 | CC(C)n1nc2c(F)cc(N3CCN(CC(=O)N4CC(O)C4)CC3)cc2c1N(C)c1nc(-c2ccc(F)cc2)c(C#N)s1 [Compound S-0125, 2-((7-fluoro-5-(4-(2-(3-hydroxyazetidin-1-yl)-2-oxoethyl)piperazin-1-yl)-2-isopropyl-2H-indazol-3-yl)(methyl)amino)-4-(4-fluorophenyl)thiazole-5-carbonitrile] | – | – | 178 | –
8 | CN(c1nc(-c2ccc(F)cc2)c(C#N)s1)c1c2cc(N3CCN(CC(=O)N4CC(O)C4)CC3)cc(F)c2nn1C1CC1 [Compound S-0126, 2-((2-cyclopropyl-7-fluoro-5-(4-(2-(3-hydroxyazetidin-1-yl)-2-oxoethyl)piperazin-1-yl)-2H-indazol-3-yl)(methyl)amino)-4-(4-fluorophenyl)thiazole-5-carbonitrile] | – | – | 100 | –
9 | CCN(c1nc(-c2ccc(F)cc2)c(C#N)s1)c1c2cc(N3CCN(CC(=O)N4CC(O)C4)[C@@H](C(F)(F)F)C3)cc(F)c2nn1CC [Compound S-0135B, (R)-2-(ethyl (2-ethyl-7-fluoro-5-(4-(2-(3-hydroxyazetidin-1-yl)-2-oxoethyl)-3-(trifluoromethyl)piperazin-1-yl)-2H-indazol-3-yl)amino)-4-(4-fluorophenyl)thiazole-5-carbonitrile] | – | – | – | 167
10 | CCn1nc2c(C)cc(N3CCN(CC(=O)N4CC(O)C4)CC3)nc2c1N(CC(F)(F)F)c1nc(-c2ccc(F)cc2)c(C#N)s1 [Compound S-0140, 2-((2-ethyl-5-(4-(2-(3-hydroxyazetidin-1-yl)-2-oxoethyl)piperazin-1-yl)-7-methyl-2H-pyrazolo[4,3-b]pyridin-3-yl)(2,2,2-trifluoroethyl)amino)-4-(4-fluorophenyl)thiazole-5-carbonitrile] | – | – | 325 | –
11 | O=C1S/C(=C\c2ccc(OCc3cccc(B(O)O)c3)cc2)C(=O)N1Cc1ccc(F)cc1 [HA130, reference compound] | – | – | 24 | –
